# Laboratory results from US7635686B2, “Therapeutically useful triethyleneglycol cholesteryl oligonucleotides” (Bioniche Life Sciences, Inc., priority 2001, dated 2009).
# {TEG-Chol} = cholesteryl attached through a triethylene glycol (TEG) linker
# What was measured:
# EL-4 cells = experiment: Cleavage of poly(ADP-ribose) polymerase in EL-4 cells (FITC-antibody flow cytometry); type: cell-based, murine; details: 53 μM, 72 h; for Percentage of cells containing cleaved PARP: EL-4 cells, untreated 1
# Procedure: EL-4 cells (2.5×10^5 cells/ml) were incubated for 72 h with 0 μM (control), 53 μM of SEQ ID NO:3 or 53 μM of SEQ ID NO:7. After incubation, both control and treated cells were washed, fixed, permeabilized and incubated with an FITC-conjugated antibody that recognizes specifically the 85 kDa fragments of cleaved PARP (BioSource, Camarillo, Calif., USA) using the conditions recommended by the manufacturer. Fluorescence associated with cleaved PARP was analyzed by flow cytometry on a FACSCalibur using the program CellQUEST (both from Becton Dickinson). The percentage of cells containing cleaved PARP in EL-4 cells treated with 53 μM final concentration of sequences is shown in Table 5.
# Hs578T cells [1] = experiment: Cellular proliferation of Hs578T cells (Trypan blue exclusion count); type: cell-based, human; details: 53 μM; for Effect on cellular proliferation (in words): 72 hrs; for Percentage of changes in cellular proliferation compared to controls (mean ± s.d.): cultured for 3 days, + stimulation, − inhibition, three independent assays
# Procedure: (§1) Either 20×10^3 MDA-MB-231 (MDA-231) or Hs578T cells were plated into individual wells of 24-well plates in regular culture medium (RCM) presence or absence (control) of 53 μM (final concentration) of SEQ ID NO:3, SEQ ID NO:7, 53 μM cholesteryl-TEG phosphoramidite, or corresponding control media (regular culture medium (RCM) for SEQ ID NO:3, RCM with the same amount of water as the amount added with the SEQ ID NO:7, and RCM with the same amount of acetonitrile as the amount added with cholesteryl-TEG phosphoramidite). Cells were cultured for 72 hrs, removed with trypsin and counted with an hemocytometer using the Trypan blue exclusion technique. Results of three independent assays (mean and standard deviation (s.d.) of percentage of changes compared to controls) are shown in Table 9.
# [2] = test system: MDA-MB-231 (MDA-231) cells; experiment: Cellular proliferation of MDA-231 cells (Trypan blue exclusion count); type: cell-based, human; details: MDA-231, 53 μM; for Effect on cellular proliferation (in words): 72 hrs; for Percentage of changes in cellular proliferation compared to controls (mean ± s.d.): cultured for 3 days, + stimulation, − inhibition, three independent assays
# Procedure: as §1
# Hs578T cells [3] = experiment: Cell cycle progression in Hs578T multicellular spheroids (PI staining); type: cell-based, human; details: 53 μM, 72 hrs, FIG. 5
# Procedure: Multicellular spheroids (MS) is an example of a special in vitro assay, in which tumor cells are cultured in a 3-dimensional manner to form a “tumor-like” structure. In this system, there is a reinforcement of cell-cell interactions that mimic microenvironmental conditions of malignant cells in solid tumors in vivo. In this type of assay, no extracellular matrix components are added. Cells cultured in this MS system differ from those in 2-dimensional systems (monolayer culture conditions). Some of these differences are related to structural and functional differentiation of tumor cells, changes in the cell cycle of tumor cells, “multicellular drug resistance”, and changes in the diffusion and penetration of drugs throughout layers of tumor cells (reviewed in Green et al., Anticancer Drug Des. 14:153, 1999).
# About 100×10^3 Hs578T cells per spheroid were cultured in presence of 53 μM final concentration of SEQ ID NO:3, SEQ ID NO:7, 53 μM final concentration of cholesteryl-TEG phosphoramidite (cholTEG) or corresponding control media (regular culture medium (RCM), RCM with the same amount of water (RCMW) as the amount added with the SEQ ID NO:7, and RCM with the same amount of acetonitrile (RCMA) as the amount added with cholesteryl-TEG phosphoramidite). Five spheroids per each experimental condition were cultured for 72 hrs. Afterwards, cell cycle progression was evaluated by propidium iodide (PI) staining (Calbiochem, Novabiochem Corporation, San Diego, Calif.) using a FACScalibur flow cytometer (Becton Dickinson, Franklin Lakes, N.J.). Changes in the percentage of cells in the different phases of the cell cycle were analyzed using MODFIT LT software (Verity Software House Inc).
# MCF-7 cells = experiment: Treatment of pre-formed 3-dimensional MCF-7 structures on MATRIGEL; type: cell-based, human; details: MCF-7, 53 μM, repeated every 3-4 days up to 19-20 days, FIG. 3
# Procedure: MCF-7 cells were cultured in regular culture medium (RCM), trypsinized and counted. 150×10^3 of MCF-7 cells, in wells of 24-well plates coated with 350 μl of MATRIGEL®. After the formation of 3-dimensional structures during 48 hrs without any treatment, the medium was changed and the structures were exposed to a final concentration of 53 μM of SEQ ID NO:3, 53 μM of SEQ ID NO:7, 53 μM of cholesteryl-TEG phosphoramidite, RCM or their respective control media (RCM with water, RCM with DMSO, or RCM with acetonitrile). The treatments were repeated every 3-4 days until a maximum time in culture of 19-20 days. The experiment was repeated three times. Digital photographs of the cells in the 24-well plates were taken using a Nikon Coolpix 990 digital camera connected to a Nikon inverted microscope model TMS.
# [4] = test system: MDA-MB-231 (MDA-231) cells; experiment: Treatment of pre-formed 3-dimensional MDA-231 structures on MATRIGEL; type: cell-based, human; details: MDA-231, 53 μM, repeated every 3-4 days up to 17-21 days, FIG. 4
# Procedure: The MDA-MB-231 (MDA-231) cells were cultured in regular culture medium, trypsinized and counted. 100×10^3 of MDA-231 cells were plated in regular culture medium (RCM), in wells of 24-well plates coated with 350 μl of MATRIGEL®. After the formation of 3-dimensional structures during 48 hrs without any treatment, the medium was changed, and structures were exposed to a final concentration of 53 μM of SEQ ID NO:3, 53 μM of SEQ ID NO:7, 53 μM of cholesteryl-TEG phosphoramidite, RCM, or their respective control media (RCM with water, RCM with DMSO or RCM with acetonitrile). The treatments were repeated every 3-4 days until a maximum time in culture of 17-21 days. The experiment was repeated three times. Digital photographs of the cells in the 24-well plates were taken using a Nikon Coolpix 990 digital camera connected to a Nikon inverted microscope model TMS.
# HIG-82 cells = experiment: HIG-82 synovial cell proliferation (MTT reduction); type: cell-based, rabbit; details: 53 μM, 48 hours; for Inhibition of HIG-82 cell proliferation, inhibition (%): MTT
# Procedure, shortened: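 Adherent synovial cells at 10×10^5 cells/ml exposed 48 h to […] at 53 μM final. Proliferation measured by MTT reduction read at 570 nm and expressed as percentage inhibition.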
Substance,Cleavage of PARP in EL-4 cells (in words) (EL-4 cells),Percentage of cells containing cleaved PARP (EL-4 cells) [%],Effect on cellular proliferation (in words) (Hs578T cells [1]),Percentage of changes in cellular proliferation compared to controls (mean ± s.d.) (Hs578T cells [1]) [%],Effect on cellular proliferation (in words) [2],Percentage of changes in cellular proliferation compared to controls (mean ± s.d.) [2],Cell cycle progression in multicellular spheroids (Hs578T cells [3]),Effect on pre-formed 3-dimensional structures on MATRIGEL (MCF-7 cells),Effect on pre-formed 3-dimensional structures on MATRIGEL [4],Inhibition of proliferation of synovial HIG-82 cells (in words) (HIG-82 cells),"Inhibition of HIG-82 cell proliferation, inhibition (%) (HIG-82 cells)"
"5′ OH-CCACCC(TEG-cholesteryl) 3′ (3' {TEG-Chol}, sugars by position and backbone not given here) [SEQ ID NO:7]",capacity to induce apoptosis as measured by cleavage of PARP,84,capacity to inhibit cellular proliferation,−91.8 ± 10.5,capacity to inhibit cellular proliferation,−97.9 ± 2.5%,increased the percentage of cells in G2M and S-phase and decrease the percentage of cells in G0/G1,disrupted the growth pattern of the structures,disrupted the growth pattern of the structures,capacity to inhibit the cellular proliferation,53
"5′ OH-CCACCC-OH 3′ (listed as DNA, chemistry not fully specified) [SEQ ID NO:3]",inactive,1,did not significantly affect cellular proliferation,−6.5 ± 5,did not significantly affect cellular proliferation,+6.9 ± 5%,did not significantly modify cell cycle progression,did not affect the 3-dimensional structures,did not affect the 3-dimensional structures,did not inhibit proliferation,0
